Results from US8058295B2, “Cystic fibrosis transmembrane conductance regulator protein inhibitors and uses thereof” (The Regents of the University of California, priority 2002, dated 2011).

Tests used:
wildtype CFTR = wildtype CFTR (Homo sapiens, UniProt P13569); experiment: YFP fluorescence assay of CFTR-mediated I^− transport in FRT cells; type: cell-based; design: expressed in transfected cells; host or cells: Fischer rat thyroid (FRT) cells; conditions: relative to CFTRinh-172 = 1.0
Procedure: FIG. 1A is a schematic representation of a screening technique used for detection of CFTR inhibitors. CFTR was maximally stimulated by multiple agonists in stably transfected epithelial cells co-expressing human CFTR and a yellow fluorescent protein (YFP) having Cl^−/I^− sensitive fluorescence. After addition of a test compound, I^− influx was induced by adding an I^− containing solution.
Cells were plated in 96-well black-walled microplates (Corning Costar) at a density of 20,000 cells per well in Coon's modified F12 medium supplemented with 5% fetal calf serum, 2 mM L-glutamine, 100 U/mL penicillin, and 100 μg/mL streptomycin. Assays were done at 48 hours after plating at which time cells were just confluent (˜40,000 cells per well).
Assays were done using a customized screening system (Beckman) consisting of a 3-meter robotic arm, CO2 incubator, plate washer, liquid handling workstation, bar code reader, delidding station, and two FluoStar fluorescence plate readers (BMG Labtechnologies, Offenburg, Germany), each equipped with two syringe pumps and HQ500/20X (500±10 nm) excitation and HQ535/30M (535±15 nm) emission filters (Chroma). The robotic system was integrated using SAMI version 3.3 software (Beckman) modified for two plate readers. Custom software was written in VBA (Visual Basic for Applications) to compute baseline-subtracted, normalized fluorescence slopes (giving halide influx rates) from stored data files.
The assay was set-up by loading the incubator (37° C., 90% humidity, 5% CO2) with 40-60 96-well plates containing the FRT cells, and loading a carousel with 96-well plates containing test compounds and disposable plastic pipette tips. To initiate the assay, each well of a 96-well plate was washed 3 times in PBS (300 μL/wash), leaving 50 μL PBS. Ten μL of a CFTR-activating cocktail (5 μM forskolin, 100 μM IBMX, 25 μM apigenin in PBS) was added, and after 5 min one test compound (0.5 μL of 1 mM DMSO solution) was added to each well to give 10 μM final concentration. After 10 min, 96-well plates were transferred to a plate reader for fluorescence assay. Each well was assayed individually for CFTR-mediated I^− transport by recording fluorescence continuously (200 ms per point) for 2 s (baseline) and then for 12 s after rapid (<0.5 s) addition of 160 μL of isosmolar PBS in which 137 mM Cl^− was replaced by I^−.
The primary screening technique used to identify the compounds of the invention was designed to identify inhibitors of CFTR Cl^− conductance by direct CFTR-inhibitor interaction. CFTR was pre-stimulated in CFTR-expressing FRT cells by an activating cocktail containing forskolin, IBMX and apigenin, as shown schematically in FIG. 1A. The activation of CFTR by multiple mechanisms (cAMP elevation, phosphodiesterase inhibition, and direct CFTR binding) allowed identification of inhibitors that blocked the CFTR Cl^− transporting pathway directly rather than more proximal step(s) in a signaling pathway. The FRT cells co-expressed a yellow fluorescent protein-based Cl^−/I^− sensor that provided a quantitative fluorescence read-out of inhibition potency (See, e.g., Jayaraman et al., 2000, J. Biol. Chem. 275:6047-6050; Galietta et al., 2001, Am. J. Physiol. 281:C1734-C1742.). After CFTR pre-stimulation and compound addition, cells were subjected to an inwardly-directed I^− gradient to drive I^− influx and produce decreasing fluorescence. Each assay consisted of recording baseline fluorescence for 2 seconds, followed by 12 seconds of continuous recording of fluorescence after rapid addition of the I^− containing solution. Compounds were tested separately at 10 μM concentration in a 96-well format utilizing a fully-automated high-throughput screening apparatus (see Example 2 below).

Caco-2 monolayers = conditions: literature values, Stenberg et al.; cited from earlier work
MDR-1 = molecular target: T1, MDR-1 (Homo sapiens, UniProt P08183); experiment: MDR-1 activity, ^3H-vincristine accumulation in 9HTEo-/Dx cells; type: cell-based; conditions: 100 μM
T1 construct: endogenous in cells; host or cells: 9HTEo-/Dx cells
T1 sequence (P08183 whole entry): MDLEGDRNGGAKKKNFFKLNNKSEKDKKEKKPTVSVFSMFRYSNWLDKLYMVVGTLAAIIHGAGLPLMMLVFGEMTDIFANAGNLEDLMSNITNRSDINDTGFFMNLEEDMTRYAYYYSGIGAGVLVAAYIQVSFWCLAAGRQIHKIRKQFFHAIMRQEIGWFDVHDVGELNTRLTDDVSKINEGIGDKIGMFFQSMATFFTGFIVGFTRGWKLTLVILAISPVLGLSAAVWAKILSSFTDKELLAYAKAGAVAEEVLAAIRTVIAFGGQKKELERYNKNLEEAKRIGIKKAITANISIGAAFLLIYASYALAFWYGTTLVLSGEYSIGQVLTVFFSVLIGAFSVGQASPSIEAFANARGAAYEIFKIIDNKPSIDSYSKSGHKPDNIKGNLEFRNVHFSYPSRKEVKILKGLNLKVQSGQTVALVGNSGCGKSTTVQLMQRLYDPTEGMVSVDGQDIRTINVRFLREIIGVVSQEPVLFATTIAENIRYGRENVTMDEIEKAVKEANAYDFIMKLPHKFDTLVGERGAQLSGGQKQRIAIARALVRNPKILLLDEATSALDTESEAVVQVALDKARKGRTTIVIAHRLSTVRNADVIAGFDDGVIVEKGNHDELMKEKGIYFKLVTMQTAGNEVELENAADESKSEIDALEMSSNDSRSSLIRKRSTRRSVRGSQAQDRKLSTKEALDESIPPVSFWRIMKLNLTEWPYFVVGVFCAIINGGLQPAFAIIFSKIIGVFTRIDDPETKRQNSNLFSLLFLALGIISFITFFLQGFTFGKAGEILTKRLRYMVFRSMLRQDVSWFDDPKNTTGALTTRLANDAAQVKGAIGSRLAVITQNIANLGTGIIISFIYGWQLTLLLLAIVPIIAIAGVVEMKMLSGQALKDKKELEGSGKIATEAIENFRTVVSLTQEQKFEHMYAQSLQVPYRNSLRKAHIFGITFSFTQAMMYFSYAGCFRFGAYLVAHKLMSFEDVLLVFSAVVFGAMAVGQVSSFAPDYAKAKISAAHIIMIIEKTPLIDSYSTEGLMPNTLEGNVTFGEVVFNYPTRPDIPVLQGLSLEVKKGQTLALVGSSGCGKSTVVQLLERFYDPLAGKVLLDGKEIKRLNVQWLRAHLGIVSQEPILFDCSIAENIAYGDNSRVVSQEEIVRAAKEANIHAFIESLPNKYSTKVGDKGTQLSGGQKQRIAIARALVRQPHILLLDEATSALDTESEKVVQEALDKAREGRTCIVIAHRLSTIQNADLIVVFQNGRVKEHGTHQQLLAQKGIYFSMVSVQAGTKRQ

Sequence of wildtype CFTR (P13569 whole entry): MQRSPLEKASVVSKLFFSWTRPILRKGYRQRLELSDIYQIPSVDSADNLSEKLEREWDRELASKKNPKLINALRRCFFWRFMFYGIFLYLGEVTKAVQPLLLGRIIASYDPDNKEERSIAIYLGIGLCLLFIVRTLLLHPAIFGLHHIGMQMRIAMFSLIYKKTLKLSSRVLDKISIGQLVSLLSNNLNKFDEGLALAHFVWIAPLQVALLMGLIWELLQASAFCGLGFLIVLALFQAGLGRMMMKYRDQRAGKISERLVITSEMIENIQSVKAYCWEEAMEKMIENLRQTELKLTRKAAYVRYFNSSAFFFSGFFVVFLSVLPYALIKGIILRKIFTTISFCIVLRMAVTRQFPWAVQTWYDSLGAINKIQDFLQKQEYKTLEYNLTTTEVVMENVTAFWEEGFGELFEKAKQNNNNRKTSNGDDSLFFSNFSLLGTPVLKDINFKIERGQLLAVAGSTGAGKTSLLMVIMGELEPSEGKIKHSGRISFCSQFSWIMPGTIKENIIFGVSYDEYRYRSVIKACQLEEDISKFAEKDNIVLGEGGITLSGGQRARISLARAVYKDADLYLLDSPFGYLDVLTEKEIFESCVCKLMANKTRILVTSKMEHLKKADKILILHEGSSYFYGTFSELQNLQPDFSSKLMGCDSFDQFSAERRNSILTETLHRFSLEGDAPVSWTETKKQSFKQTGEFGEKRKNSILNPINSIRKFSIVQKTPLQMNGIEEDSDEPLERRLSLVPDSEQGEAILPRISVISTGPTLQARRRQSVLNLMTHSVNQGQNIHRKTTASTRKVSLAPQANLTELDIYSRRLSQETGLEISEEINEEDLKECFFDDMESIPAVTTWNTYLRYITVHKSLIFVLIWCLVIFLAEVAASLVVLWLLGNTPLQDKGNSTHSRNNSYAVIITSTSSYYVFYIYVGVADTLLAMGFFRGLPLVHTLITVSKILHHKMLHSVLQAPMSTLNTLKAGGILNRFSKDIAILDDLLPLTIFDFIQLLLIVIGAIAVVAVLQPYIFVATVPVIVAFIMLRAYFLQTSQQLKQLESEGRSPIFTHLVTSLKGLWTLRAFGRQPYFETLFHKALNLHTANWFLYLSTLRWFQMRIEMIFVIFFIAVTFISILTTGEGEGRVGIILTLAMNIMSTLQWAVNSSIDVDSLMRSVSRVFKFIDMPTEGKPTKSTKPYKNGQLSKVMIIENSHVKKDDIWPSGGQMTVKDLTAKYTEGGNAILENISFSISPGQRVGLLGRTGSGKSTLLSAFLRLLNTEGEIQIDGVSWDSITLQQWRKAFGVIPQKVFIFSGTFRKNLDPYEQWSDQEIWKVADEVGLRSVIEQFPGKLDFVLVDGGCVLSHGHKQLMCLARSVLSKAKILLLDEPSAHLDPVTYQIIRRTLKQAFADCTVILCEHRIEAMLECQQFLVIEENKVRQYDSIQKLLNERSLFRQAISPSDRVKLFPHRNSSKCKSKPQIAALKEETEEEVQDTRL

relative potency (CFTR inhibition) (wildtype CFTR) | SMILES | further results
0.70 | O=C(O)c1ccccc1C=C1SC(=S)N(c2ccccc2C(F)(F)F)C1=O [2, 3, 3-[(a-trifluoromethyl)phenyl]-5-[(b-carboxyphenyl)methylene]-2-thioxo-4-thiazolidinone] | –
0.66 | O=C(O)c1ccccc1C=C1SC(=S)N(c2ccccc2C(F)(F)F)C1=O [2, 4, 3-[(a-trifluoromethyl)phenyl]-5-[(b-carboxyphenyl)methylene]-2-thioxo-4-thiazolidinone] | –
0.74 | O=C(O)c1ccccc1C=C1SC(=S)N(c2ccccc2C(F)(F)F)C1=O [3, 2, 3-[(a-trifluoromethyl)phenyl]-5-[(b-carboxyphenyl)methylene]-2-thioxo-4-thiazolidinone] | –
0.90 | O=C(O)c1ccccc1C=C1SC(=S)N(c2ccccc2C(F)(F)F)C1=O [3, 3, 3-[(a-trifluoromethyl)phenyl]-5-[(b-carboxyphenyl)methylene]-2-thioxo-4-thiazolidinone] | –
0.67 | O=C(O)c1ccccc1C=C1SC(=S)N(c2ccccc2C(F)(F)F)C1=O [4, 2, 3-[(a-trifluoromethyl)phenyl]-5-[(b-carboxyphenyl)methylene]-2-thioxo-4-thiazolidinone] | –
0.64 | O=C(O)c1ccccc1C=C1SC(=S)N(c2ccccc2C(F)(F)F)C1=O [4, 3, 3-[(a-trifluoromethyl)phenyl]-5-[(b-carboxyphenyl)methylene]-2-thioxo-4-thiazolidinone] | –
0.56 | O=C(O)c1ccccc1C=C1SC(=S)N(c2ccccc2C(F)(F)F)C1=O [4, 4, 3-[(a-trifluoromethyl)phenyl]-5-[(b-carboxyphenyl)methylene]-2-thioxo-4-thiazolidinone] | –
0.2 | O=C1/C(=C/c2ccc([N+](=O)[O-])cc2)SC(=S)N1c1cccc(C(F)(F)F)c1 [CFTRinh-020, 3-[(3-trifluoromethyl)phenyl]-5-[(4-nitrophenyl)methylene]-2-thioxo-4-thiazolidinone] | –
0.3 | O=C(O)Oc1ccc(/C=C2\SC(=S)N(c3cccc(C(F)(F)F)c3)C2=O)cc1 [CFTRinh-029, 3-[(3-trifluoromethyl)phenyl]-5-[(4-oxycarboxyphenyl)methylene]-2-thioxo-4-thiazolidinone] | –
0.2 | O=C1/C(=C/c2ccc(O)c(O)c2)SC(=S)N1c1cccc(C(F)(F)F)c1 [CFTRinh-185, 3-[(3-trifluoromethyl)phenyl]-5-[(3,4-dihydroxyphenyl)methylene]-2-thioxo-4-thiazolidinone] | –
0.1 | O=C1/C(=C/c2cc(Br)c(O)c(Br)c2)SC(=S)N1c1cccc(C(F)(F)F)c1 [CFTRinh-214, 3-[(3-trifluoromethyl)phenyl]-5-[(3,5-dibromo-4-hydroxyphenyl)methylene]-2-thioxo-4-thiazolidinone] | –
0.1 | O=C1/C(=C/c2cc(Br)c(O)c([N+](=O)[O-])c2)SC(=S)N1c1cccc(C(F)(F)F)c1 [CFTRinh-236, 3-[(3-trifluoromethyl)phenyl]-5-[(3-bromo-4-hydroxy-5-nitrophenyl)methylene]-2-thioxo-4-thiazolidinone] | –
0.69 | O=C(O)c1ccccc1C=C1SC(=S)N(c2ccccc2C(F)(F)F)C1=O [a=2, b=2, 3-[(a-trifluoromethyl)phenyl]-5-[(b-carboxyphenyl)methylene]-2-thioxo-4-thiazolidinone] | –
– | CC(C)NCC(O)COc1cccc2[nH]ccc12 (stereo not shown) [pindolol] | permeability coefficient (Caco-2 monolayers): 36 ×10⁻⁶ cm/s
– | CCCc1nn(C)c2c(=O)[nH]c(-c3cc(S(=O)(=O)N4CCN(C)CC4)ccc3OCC)nc12 [sildenafil] | permeability coefficient (Caco-2 monolayers): 48 ×10⁻⁶ cm/s
– | COc1ccc(CCN(C)CCCC(C#N)(c2ccc(OC)c(OC)c2)C(C)C)cc1OC (stereo not shown) [verapamil, reference compound] | vincristine accumulation (MDR-1): strongly increased
